Source: a melting point compilation (Tetko et al.; mined from patent text by program, amines drawn as free bases though some values may be those of a salt)

SMILES | melting point [°C]
CC(C)CCCC(C)CCCC(C)CCOc1ccc(C(=O)O)o1 (stereo unspecified) | 70 to 73
COc1cccc2c1C=C(C#N)CC2 | 66 to 68
C[C@H](Nc1cc(Cl)ccc1[N+](=O)[O-])C(=O)O | 167 to 169
CS(=O)(=O)OC[C@H]1CN(c2ccc(C3=CCSCC3)c(F)c2)C(=O)O1 | 138 to 141
COc1cc(F)c(C)cc1[N+](=O)[O-] | 71 to 74
C=CCC(C(N)=O)C(CC(C)C)C(=O)NC1N=C(c2cccnc2)c2ccccc2N(C)C1=O (stereo unspecified) | 251 to 253
CCc1nc(O)c2c(n1)c(C)nn2C | 220 to 222
COc1cc(Cl)c(N2CCN(c3cccc(C(F)(F)F)c3)CC2)c(Cl)c1 | 87 to 89
CN1CC[C@@H]2CC(=O)c3cccc(F)c3[C@@H]2C1 (relative stereo) | > 220
CCOC(C)=C(C#N)C(=O)Nc1ccccc1F | 158 to 160
CN1C(c2ccc(Cl)cc2)=C(C#N)CC1C(F)(F)F (stereo unspecified) | 158 to 160
N=C1SCCN1c1ccc(N)cc1 | 148
Cc1nc(C(C)(O)c2cccs2)sc1C (stereo unspecified) | 129 to 130
CC(C)CCCC(C)C1CCC2C3CC4(OCCO4)C4CC(O)CCC4(C)C3CCC12C (stereo unspecified) | 114 to 115
C=CCS(=O)(=O)CC=C | 63 to 65
CC1CCCC(C)N1CCNC(=O)CN1CC(c2ccccc2)CC1=O (stereo unspecified) | 115 to 116
COc1cnnc(O)c1 | 253 to 255

Results, then the molecule that gave them:

melting point [°C] | SMILES
74 to 89 | COc1ccccc1-c1ccc2cnc(Nc3cccc(C4CCN(C)CC4)c3OC)nn12
95 to 97 | COc1ccc(-n2nc(CCN)cc2-c2ccc(Cl)cc2)cc1
141 to 143 | Cc1cc(-c2cc(C(F)(F)F)nn2-c2ccc(S(C)(=O)=O)c(F)c2)ccc1-c1cocn1
254 to 256 | O=C(c1ccccc1Cl)N1Cc2c(-c3noc(C4CC4)n3)ncn2-c2ccccc21
222 to 223 | CCn1c(C(OCCO)(c2cccc(C(F)(F)F)c2)c2cccc(C(F)(F)F)c2)nc(-c2ccncc2)c1-c1ccc(Cl)cc1
183 to 185 | CCCNC(=O)CSc1nc(-c2ccccc2)c(-c2ccccc2)[nH]1
135 to 137 | Cc1nccn1-c1ccc([N+](=O)[O-])cc1
130 to 132 | CCCCC(=N)NC(=O)Nc1ccccc1[N+](=O)[O-]
223 to 225 | CNC(=O)c1c(Nc2ccccc2[N+](=O)[O-])c(C)nn1C
197 to 198 | CC(Cl)(Cl)C(NC(=O)c1ccc(F)cc1)NC(=NC#N)Nc1ccc(Cl)nc1 (stereo unspecified)
201 | O=C(O)CCC1(c2ccc(Cl)c(Cl)c2)CCC(=O)NC1=O (single isomer, unassigned; (+))
194 to 196 | Cc1ccc(C(O)C2OC(n3cc(C)c(=O)[nH]c3=O)CC2(O)c2ccc(C)cc2)cc1 (stereo unspecified)
160 to 161 | COc1ccc(-c2c(/C=C/C(=O)Oc3ccc([N+](=O)[O-])cc3)ccc3cc(OC)ccc23)cc1
235 to 237 | Cc1nccc2[nH]c(=O)ccc12
160 to 161 | O=C(O)COc1cccc2c1CCC(CNC(=O)OC(c1ccccc1)c1ccccc1)C2 (stereo unspecified)
194 to 195 | NC(=O)CNc1ncccc1NC(=O)c1ccccc1
92 | O=C(c1ccccc1)c1cccc(NC(=O)C(Cl)CCl)c1 (stereo unspecified)
125 | COC(=O)c1ccccc1S(=O)(=O)c1ccc(/C=C/c2ccc(F)cc2)cc1
177 to 178 | O=C(O)Cc1c(C(=O)c2cccs2)[nH]c2cc(Cl)ccc12
155 to 157 | CCOc1cc(C(C#N)N2C(=O)c3cccc([N+](=O)[O-])c3C2=O)ccc1OC (stereo unspecified)
189 to 194 | N#Cc1c(N2CCc3ccccc3CC2)nc(CSc2ccccc2)[nH]c1=O
104 to 105 | CC(=O)Nc1ccc(SCCCCNS(=O)(=O)c2ccc(C)cc2)cc1
74 to 75.5 | COc1cccc(Cc2cc3ccccc3s2)c1
209 to 212 | COCc1c(C=NO)ncc2[nH]c3cccc(Cc4ccccc4Cl)c3c12
